According to patent US20180079906A1, “AZACYANINE DYES AND USE THEREOF” (Ecole Polytechnique Fédérale de Lausanne (EPFL), priority 2016, published 2018):

How the values were obtained:
[1] = system: skin tissue of a nude mouse; assay: Ex vivo cell death assay by cryogenic tissue damage (imaging necrosis); details: for fluorescence at the site of focal dry-ice treatment: cryogenic tissue damage, 1, 5, 10 uM dye, 10 min at room temperature
Text: Ex vivo cell death assay for compounds, VI and XIV were studied using a method of cryogenic tissue damage. […] After gentle washing with PBS, the samples were scanned for fluorescence using an IVIS Spectrum imaging system (FIG. 18-19).

4T1-luc2 tumors = assay: In vivo NIR fluorescence imaging of subcutaneous 4T1 tumors in nude mice
Method: Female nude mice 6-8 weeks of age were injected with […] of 4T1 cells in 100 ul of PBS subcutaneously into the right flank. Once the tumors reached approximately 0.5 cm^3 in size, animals were injected with 20 nmol of the imaging probe XXI intravenously in 100 ul of PBS. Mice were then imaged at different time points using IVIS Spectrum instrument (Perkin Elmer) at recommended settings 745/810 nm excitation/emission (FIGS. 11-12).

mastocytoma tumor = assay: Fluorescence image-guided surgery of mastocytoma tumor in dogs; assay type: in vivo, dog
Method: A kuvasz dog (male, 30 kg) diagnosed with mastocvtoma tumor on his right leg was used for image guided surgery study. All canine studies were performed at Veterinair Verwijscentrum Gouda, Netherlands. Canine was injected intravenous catheterization into the cephalic vein with fluorescence probe XXI (180 nmol/kg) 6h prior to surgery. Canine underwent to general anesthesia prior to surgery. Image guided cancer surgery was performed using Solaris Open-air Fluorescence Imaging System (Perkin Elmer), equipped with four fluorescent channels (470 nm, 660 nm, 750 nm and 800 nm) to obtain real-time visualization of tumor imaging in ambient light (FIGS. 13-15).
A labrador dog (male, 33 kg) diagnosed with mastocytoma tumor on his nose was used for image guided surgery study. All canine studies were performed at Veterinair Verwijscentrum Gouda, Netherlands. Canine was injected intravenous catheterization into the cephalic vein with fluorescence probe XXI (92 nmol/kg) 10 h prior to surgery. Canine underwent to general anesthesia prior to surgery. Image guided cancer surgery was performed using Solaris Open-air Fluorescence Imaging System (Perkin Elmer), equipped with four fluorescent channels (470 nm, 660 nm, 750 nm and 800 nm) to obtain real-time visualization of tumor imaging in ambient light (FIGS. 16-17).

[2] = in methanol, calibration standard; cited from earlier work
[3] = cited from earlier work
[4] = 30 kg dog, 180 nmol/kg I.V., 6h after injection

CC1(C)C2=CC=CN(CCCCCC(=O)O)C2=N/C1=C/C=C1\C[N+](C)(C)CC(/C=C/C2=Nc3c(ccc[n+]3CCCCCC(=O)O)C2(C)C)=C1Cl [Dye VI]
fluorescence signal from viable cells ([1]; cryogenic tissue damage): no signal | fluorescence at the site of focal dry-ice treatment [1]: strong fluorescence signal

CC1(C)C2=CC=CN(CCCCCC(=O)O)C2=N/C1=C/C=C1\C[N+](C)(C)CC(/C=C/C2=Nc3c(ccc[n+]3CCCCCC(=O)O)C2(C)C)=C1Oc1ccc(S(=O)(=O)O)cc1.[Na+] [Dye XIV]
fluorescence at the site of focal dry-ice treatment [1]: strong accumulation of fluorescence

CC1(C)C2=CC=CN(CCCCCC(=O)NCCCC[C@@H]3NC(=O)[C@@H](Cc4ccccc4)NC(=O)[C@H](CC(=O)O)NC(=O)CNC(=O)[C@H](CCCNC(=N)N)NC3=O)C2=N/C1=C/C=C1\C[N+](C)(C)CC(/C=C/C2=Nc3c(ccc[n+]3CCCCCC(=O)NCCCC[C@H]3NC(=O)[C@H](Cc4ccccc4)NC(=O)[C@@H](CC(=O)O)NC(=O)CNC(=O)[C@@H](CCCNC(=N)N)NC3=O)C2(C)C)=C1Oc1ccc(S(=O)(=O)O)cc1.[Na+] [Dye XXI]
time post injection of optimal background/noise ratio calculated from the region of interest (4T1-luc2 tumors; 4T1 tumour bearing mice): 2 h | tumor uptake (kinetics and specificity) (4T1-luc2 tumors; subcutaneous tumors in mice): faster and more specific tumor uptake | time post injection at which optimal background to noise ratio is achieved (4T1-luc2 tumors; subcutaneous tumors in mice, intravenous injection): 2 h | background uptake in normal tissue (mastocytoma tumor; [4]): negligible | identification of tumor by fluorescence in vivo (mastocytoma tumor; [4]): clearly identified | time post injection of highest accumulation in the tumor tissue (mastocytoma tumor; dogs): ≤ 6 h

CC1(C)C(/C=C/C=C/C=C/C=C2\N(CCCCS(=O)(=O)O)c3ccc4ccccc4c3C2(C)C)=[N+](CCCCS(=O)(=O)[O-])c2ccc3ccccc3c21 [ICG, Indocyanine Green]
fluorescence quantum yield (QY) [2]: 7.8% | solubility in saline [3]: not readily soluble
